From patent publication US20050245399A1, “Pyrazole derivatives as herbicidal compositions containing them” (ISHIHARA SANGYO KAISHA, LTD., priority 2004, published 2005)

Columns and labels:
Format in all cases: in vivo
[1] = tested on: green foxtail (Setaria viridis L.): SETVI; experiment: Test Example 1 pre-emergence herbicidal activity, SETVI; settings: Rate 63 g a.i./ha, visually observed 20th to 23rd day after application
Method in brief: (§1)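 pots, upland field soil; sow; +1 d spray compound (WP or EC, a.i. at set dose, 500 L/ha water), pre-emergence; visual % growth control d20–23 (0 untreated, 100 complete kill).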

[2] = tested on: wheat (Triticum aestivum L.): TRZAX; experiment: Test Example 1 pre-emergence herbicidal activity, TRZAX; settings: Rate 63 g a.i./ha, visually observed 20th to 23rd day after application
Method in brief: as §1

[3] = tested on: soybean (Glycine max Merr.), GLXMA; experiment: Test Example 2 post-emergence (foliage treatment) herbicidal activity, GLXMA; settings: 63 g a.i./ha
Method in brief: (§2)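 Each species was evaluated for growth suppression by eye, 0% matching untreated and 100% meaning death, some 20 to 23 days after a single post-emergence foliar treatment applied in 500 L/ha of water carrying 0.1% (v/v) agricultural spreader.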

[4] = tested on: redroot pigweed (Amaranthus retroflexus L.), AMARE; experiment: Test Example 2 post-emergence (foliage treatment) herbicidal activity, AMARE; settings: 63 g a.i./ha
Text: Upland field soil was put into a 1/170,000 ha pot, and seeds of various plants were sown. Then, when the plants reached predetermined leaf stages {1. barnyardgrass (Echinochloa crus-galli L.), ECHCG: 1.1-2.1 leaf stage, 2. crabgrass (Digitaria sanguinalis L.), DIGSA: 1.0-2.0 leaf stage, 3. green foxtail (Setaria viridis L.), SETVI: 1.0-2.2 leaf stage, 4. redroot pigweed (Amaranthus retroflexus L.), AMARE: 0.1-1.5 leaf stage, 5. prickly sida (Sida spinosa L.), SIDSP: 0.1-0.6 leaf stage, 6. velvetleaf (Abutilon theophrasti), ABUTH: 0.1-0.6 leaf stage, 7. common cocklebur (Xanthium strumarium L.), XANST: 0.1 leaf stage, 8. rice (Oryza sativa L.), ORYSA; 1.0-2 leaf stage, 9. wheat (Triticum aestivum L.), TRZAX: 2.3-3.5 leaf stage, 10. corn (Zea mays L.), ZEAMXN 2.1-2.6 leaf stage, 11. soybean (Glycine max Merr.), GLXMA: primary leaf stage}, a wettable powder or emulsifiable concentrate having the compound of the present invention formulated in accordance with a usual formulation method, was weighed so that the active ingredient would be a predetermined amount, and diluted with water in an amount of 500 L/ha. To the diluted solution, 0.1% (v/v) of an agricultural spreader was added. The herbicide adjusted was applied by a small size sprayer for foliage treatment. On the 20th to 23rd day after the application of the herbicide, the growth of the respective plants was visually observed, and the herbicidal effects were evaluated by growth controlling degrees (%) ranging from 0 (equivalent to the untreated control) to 100 (complete kill), whereby the results shown in Table 5, were obtained. Compound Nos. in Table 5 correspond to Compound Nos. in Table 1 and 2 given hereinbefore.

[5] = tested on: barnyardgrass (Echinochloa crus-galli L.): ECHCG; experiment: Test Example 1 pre-emergence herbicidal activity, ECHCG; settings: Rate 63 g a.i./ha, visually observed 20th to 23rd day after application
Method in brief: as §1

[6] = tested on: prickly sida (Sida spinosa L.), SIDSP; experiment: Test Example 2 post-emergence (foliage treatment) herbicidal activity, SIDSP; settings: 63 g a.i./ha
Method in brief: as §2

[7] = tested on: corn (Zea mays L.), ZEAMX; experiment: Test Example 2 post-emergence (foliage treatment) herbicidal activity, ZEAMX; settings: 63 g a.i./ha
Method in brief: as §2

[8] = tested on: rice (Oryza sativa L.): ORYSA; experiment: Test Example 1 pre-emergence herbicidal activity, ORYSA; settings: Rate 63 g a.i./ha, visually observed 20th to 23rd day after application
Method in brief: as §1

[9] = tested on: crabgrass (Digitaria sanguinalis L.), DIGSA; experiment: Test Example 2 post-emergence (foliage treatment) herbicidal activity, DIGSA; settings: 63 g a.i./ha
Method in brief: (§3)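 Herbicide was applied to foliage of seedlings raised in upland field soil: redroot pigweed at 0.1-1.5 leaves, barnyardgrass at 1.1-2.1, crabgrass at 1.0-2.0, rice at 1.0-2. A predetermined active ingredient amount was carried in 500 L/ha water with 0.1% (v/v) spreader; control (%) was assessed by eye after 20-23 days.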

[10] = tested on: corn (Zea mays L.): ZEAMX; experiment: Test Example 1 pre-emergence herbicidal activity, ZEAMX; settings: Rate 63 g a.i./ha, visually observed 20th to 23rd day after application
Method in brief: as §1

[11] = tested on: green foxtail (Setaria viridis L.), SETVI; experiment: Test Example 2 post-emergence (foliage treatment) herbicidal activity, SETVI; settings: 63 g a.i./ha
Method in brief: as §2

[12] = tested on: rice (Oryza sativa L.), ORYSA; experiment: Test Example 2 post-emergence (foliage treatment) herbicidal activity, ORYSA; settings: 63 g a.i./ha
Method in brief: as §3

[13] = tested on: prickly sida (Sida spinosa L.): SEDSP; experiment: Test Example 1 pre-emergence herbicidal activity, SIDSP; settings: Rate 63 g a.i./ha, visually observed 20th to 23rd day after application
Method in brief: as §1

[14] = tested on: redroot pigweed (Amaranthus retroflexus L.): AMARE; experiment: Test Example 1 pre-emergence herbicidal activity, AMARE; settings: Rate 63 g a.i./ha, visually observed 20th to 23rd day after application
Method in brief: as §1

[15] = tested on: velvetleaf (Abutilon theophrasti): ABUTH; experiment: Test Example 1 pre-emergence herbicidal activity, ABUTH; settings: Rate 63 g a.i./ha, visually observed 20th to 23rd day after application
Method in brief: as §1

[16] = tested on: velvetleaf (Abutilon theophrasti), ABUTH; experiment: Test Example 2 post-emergence (foliage treatment) herbicidal activity, ABUTH; settings: 63 g a.i./ha
Method in brief: as §2

[17] = tested on: soybean (Glycine max Merr.): GLXMA; experiment: Test Example 1 pre-emergence herbicidal activity, GLXMA; settings: Rate 63 g a.i./ha, visually observed 20th to 23rd day after application
Method in brief: as §1

[18] = tested on: crabgrass (Digitaria sanguinalis L.): DIGSA; experiment: Test Example 1 pre-emergence herbicidal activity, DIGSA; settings: Rate 63 g a.i./ha, visually observed 20th to 23rd day after application
Method in brief: as §1

[19] = tested on: wheat (Triticum aestivum L.), TRZAX; experiment: Test Example 2 post-emergence (foliage treatment) herbicidal activity, TRZAX; settings: 63 g a.i./ha
Method in brief: as §2

[20] = tested on: barnyardgrass (Echinochloa crus-galli L.), ECHCG; experiment: Test Example 2 post-emergence (foliage treatment) herbicidal activity, ECHCG; settings: 63 g a.i./ha
Method in brief: as §3

| Compound | Pre-emergence Herbicidal Activity SETVI (growth controlling degree) [1] [%] | Pre-emergence Herbicidal Activity TRZAX (growth controlling degree) [2] [%] | growth controlling degree, GLXMA [3] [%] | growth controlling degree, AMARE [4] [%] | Pre-emergence Herbicidal Activity ECHCG (growth controlling degree) [5] [%] | growth controlling degree, SIDSP [6] [%] | growth controlling degree, ZEAMX [7] [%] | Pre-emergence Herbicidal Activity ORYSA (growth controlling degree) [8] [%] | growth controlling degree, DIGSP [9] [%] | Pre-emergence Herbicidal Activity ZEAMX (growth controlling degree) [10] [%] | growth controlling degree, SETVI [11] [%] | growth controlling degree, ORYSA [12] [%] | Pre-emergence Herbicidal Activity SIDSP (growth controlling degree) [13] [%] | Pre-emergence Herbicidal Activity AMARE (growth controlling degree) [14] [%] | Pre-emergence Herbicidal Activity ABUTH (growth controlling degree) [15] [%] | growth controlling degree, ABUTH [16] [%] | Pre-emergence Herbicidal Activity GLXMA (growth controlling degree) [17] [%] | Pre-emergence Herbicidal Activity DIGSP (growth controlling degree) [18] [%] | growth controlling degree, TRZAX [19] [%] | growth controlling degree, ECHCO [20] [%] |
| --- | --- | --- | --- | --- | --- | --- | --- | --- | --- | --- | --- | --- | --- | --- | --- | --- | --- | --- | --- | --- |
| COc1c(Cl)cc(F)c(-c2nn(C)c(OC(F)F)c2Cl)c1NC(=O)C(C)=Cc1ccccc1 [Compound 1-251] | 20 | 0 | 40 | 100 | 0 | 95 | 10 | 10 | 70 | 0 | 60 | 10 | 20 | 100 | 30 | 95 | 0 | 20 | 20 | 60 |
| COc1c(Cl)cc(F)c(-c2nn(C)c(OC(F)F)c2Cl)c1NC(=O)C=Cc1ccccc1C [Compound 1-253] | 50 | 0 | 80 | 100 | 20 | 100 | 40 | 10 | 30 | 0 | 100 | 70 | 30 | 100 | 40 | 100 | 0 | 70 | 50 | 80 |
| COc1c(Cl)cc(F)c(-c2nn(C)c(OC(F)F)c2Cl)c1NC(=O)C=Cc1cccc(C)c1 [Compound 1-254] | 50 | 0 | 70 | 100 | 60 | 100 | 30 | 20 | 60 | 0 | 95 | 90 | 60 | 100 | 50 | 100 | 0 | 60 | 30 | 80 |
